Key:
[1] = tested on: myeloid cells; experiment: Intravital imaging of a mouse with microfluidic coverslip; type: in vivo; details: 50 ng/ml added through coverslip device
[2] = tested on: Dictyostelium discoideum cells
Text: Cells were readily loaded by micropipetting into the cell loading area where they were allowed to settle and adhere to the silica cover slip. The channels were primed with buffer by a syringe; we observed that the cells randomly migrated on the surface. Once the cells adhered, cAMP was pumped in to form a chemoattractant gradient. To perform this function, a Harvard apparatus pump was used to create positive pressure on the chemoattractant loaded syringe.
As shown in FIG. 6(a), tracks of seven individual cells (A-G) migrating toward the cAMP source openings (open circles). The starting point for each cell is marked with and X. Scale bar is 20 μm. B.) Quantitation of the migration parameters for cells A-G. In the table as shown in FIG. 6(b), V, C.I., and P represent velocity (microns/min.), chemotactic index, and persistence, respectively. The multiple data points in the table for cells A-G represent different sections of the path as the cell traveled toward the cAMP source.
The cell buffer was used for water immersion.
The device was connected to an inlet and outlet syringe on a Harvard Apparatus syringe pump using microfluidic tubing. […]
In order to visualize the migration of cells and record the specifics of chemotactic response; a program was written with LabVIEW™ software. […] The measured centroids are overlayed on the image data so that the tracking of the cell can be visually verified. […]

[3] = tested on: Dictyostelium discoideum cells; details: AX2 cells expressing RBD-GFP, 10 μM cAMP, bulk silica device, cells A-E tracked
Text: (Jowhar, et al., 2010.) D. discoideum cells expressing the Ras Binding Domain of Rafl and fused to the green fluorescent protein (RBD-GFP) were loaded into the open cell ports and exposed to gradients of the chemoattractant cAMP, as shown in FIG. 1E. […] Each 3 mm cell loading port was exposed to three different sources of cAMP (from three 3.0 μm gradient generating ports) under the control of a syringe or Harvard apparatus pump, which serves as a chemoattractant supply device. The syringe pump was used to apply a constant positive pressure to the loaded syringe, thus, preventing fluctuations in the gradient from potential backflow created by negative pressure.
A number of solitary cells that could be followed continuously were tracked using the Cell Tracker program written in LabVIEW™ software (FIG. 3a).
The starting point for each cell is marked with and X. Scale bar is 10 μm. In the table as shown in FIG. 3(b), V, C.I., and P represent velocity (microns/min.), chemotactic index, and persistence, respectively. The same cells were measured at different points along the traveled path to the source and are scored more than once. […]
In order to visualize the migration of cells and record the specifics of chemotactic response; a program was written with LabVIEW™ software. […] The measured centroids are overlayed on the image data so that the tracking of the cell can be visually verified.

Compound | migration rates of myeloid cells [1] | chemotaxis indices and persistence ([2]; AX2 cells expressing RBD-GFP, 100 nM cAMP, silica coverslip device with five ports, cells A-G tracked) | cell migration toward gradient ports ([2]; cells expressing LimE-RFP, cover slip device with three 15 μm ports, upright microscope, 80-minute series) | chemotaxis indices and persistence toward the source [3]
epidermal growth factor: growth factor added through the microfluidic coverslip to alter myeloid cell migration | migration rates altered |  |  | 
Nc1ncnc2c1ncn2[C@@H]1O[C@@H]2COP(=O)(O)O[C@H]2[C@H]1O [cAMP, cyclic adenosine monophosphate] |  | good chemotaxis indices and persistence | rapidly migrated towards and into the cAMP gradient cover slip ports | strong chemotaxis indices and persistence
